Experimental data reported in patent EP4755888A1 (ILAb Co., Ltd., priority 2023, dated 2025).

Biological target: PD-1/PD-L1 (Homo sapiens, UniProt Q9NZQ7)
Assay: TR-FRET PD-1/PD-L1 binding inhibition at the molecular level (free proteins)
Details: Tag1-PD-L1 and Tag2-PD-1 proteins, twelve concentrations from 200 nM, 2 hours at room temperature, read-out: FRET assay (IC50)
How it was run: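 HTRF read-out at 665/620 nm after 2 h at room temperature. Detection used anti-Tag1 Eu cryptate plus anti-Tag2 XL665 antibodies. Tagged PD-L1 and PD-1 proteins were pre-mixed with compound across twelve […] 1:2 dilutions starting at 200 nM.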

Sequence of PD-1/PD-L1 (Q9NZQ7 19-238 limits assumed): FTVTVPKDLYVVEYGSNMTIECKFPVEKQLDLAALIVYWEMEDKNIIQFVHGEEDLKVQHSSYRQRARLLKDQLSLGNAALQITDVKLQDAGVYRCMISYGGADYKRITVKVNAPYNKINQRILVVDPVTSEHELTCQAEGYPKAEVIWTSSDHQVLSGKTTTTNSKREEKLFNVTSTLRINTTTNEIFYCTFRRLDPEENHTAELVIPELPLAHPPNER

IC50	SMILES
< 10 nM	Cc1c(NC(=O)c2cc3n(n2)CCCC3N2CC[C@@H](O)C2)cccc1-c1cccc(Nc2nccc3cc(CN4CC[C@@H](O)C4)cnc23)c1C (stereo partly drawn) [Compound 13, 4-((R)-3-hydroxypyrrolidin-1-yl)-N-(3'-((3-(((R)-3-hydroxypyrrolidin-1-yl)methyl)-1,7-naphthyridin-8-yl)amino)-2,2'-dimethyl-[1,1'-biphenyl]-3-yl)-4,5,6,7-tetrahydropyrazolo[1,5-a]pyridine-2-carboxamide]
< 10 nM	Cc1c(NC(=O)c2cc3n(n2)CCC[C@H]3N2CCC(C(=O)O)CC2)cccc1-c1cccc(Nc2nc(C(F)F)nc3cccnc23)c1C [Compound 292, (R)-1-(2-((3'-((2-(difluoromethyl)pyrido[3,2-d]pyrimidin-4-yl)amino)-2,2'-dimethyl-[1,1'-biphenyl]-3-yl)carbamoyl)-4,5,6,7-tetrahydropyrazolo[1,5-a]pyridin-4-yl)piperidine-4-carboxylic acid]
< 10 nM	Cn1c(C(=O)Nc2cccc(-c3cccc(NC(=O)c4cc5n(n4)CCCC5NCC(=O)O)c3Cl)c2Cl)nc2c1CCN(CCC13CCC(C(=O)O)(CC1)C3)C2 (centres unmarked) [Compound 56, 4-(2-(2-((3'-(4-((carboxymethyl)amino)-4,5,6,7-tetrahydropyrazolo[1,5-a]pyridine-2-carboxamido)-2,2'-dichloro-[1,1'-biphenyl]-3-yl)carbamoyl)-1-methyl-6,7-dihydro-1H-imidazo[4,5-c]pyridin-5(4H)-yl)ethyl)bicyclo[2.2.1]heptane-1-carboxylic acid]
10 to 100 nM	CC(=O)NCCNC1CCCn2nc(C(=O)Nc3cccc(-c4cccc(Nc5nc(C(F)F)nc6cc(CN7CC[C@@H](O)C7)cnc56)c4C)c3C)cc21 (stereo partly drawn) [Compound 130, 4-((2-acetamidoethyl)amino)-N-(3'-((2-(difluoromethyl)-7-(((R)-3-hydroxypyrrolidin-1-yl)methyl)pyrido[3,2-d]pyrimidin-4-yl)amino)-2,2'-dimethyl-[1,1'-biphenyl]-3-yl)-4,5,6,7-tetrahydropyrazolo[1,5-a]pyridine-2-carboxamide]
10 to 100 nM	O=C(Nc1cccc(-c2cccc(Nc3nccc4cc(CN5CC[C@@H](O)C5)cnc34)c2Cl)c1Cl)c1cc2n(n1)CCCC2N1CC[C@@H](O)C1 (stereo partly drawn) [Compound 25, N-(2,2'-dichloro-3'-((3-(((R)-3-hydroxypyrrolidin-1-yl)methyl)-1,7-naphthyridin-8-yl)amino)-[1,1'-biphenyl]-3-yl)-4-((R)-3-hydroxypyrrolidin-1-yl)-4,5,6,7-tetrahydropyrazolo[1,5-a]pyridine-2-carboxamide]
< 10 nM	CC(=O)NCCNC1CCCn2nc(C(=O)Nc3cccc(-c4cccc(NC(=O)c5nc6c(s5)CN(C)CC6)c4C)c3C)cc21 (centres unmarked) [Compound 148, N-(3'-(4-((2-acetamidoethyl)amino)-4,5,6,7-tetrahydropyrazolo[1,5-a]pyridine-2-carboxamido)-2,2'-dimethyl-[1,1'-biphenyl]-3-yl)-5-methyl-4,5,6,7-tetrahydrothiazolo[5,4-c]pyridine-2-carboxamide]
10 to 100 nM	CC(C)c1nc(Nc2cccc(-c3cccc(NC(=O)c4cc5n(n4)CCC[C@@H]5NC(C)(C)C(=O)O)c3Cl)c2Cl)c2ncccc2n1 [Compound 299, (S)-2-((2-((2,2'-dichloro-3'-((2-isopropyl-pyrido[3,2-d]pyrimidin-4-yl)amino)-[1,1'-biphenyl]-3-yl)carbamoyl)-4,5,6,7-tetrahydropyrazolo[1,5-a]pyridin-4-yl)amino)-2-methylpropanoic acid]
< 10 nM	COc1cc(-c2cccc(-c3cccc(NC(=O)c4cc5n(n4)CCC[C@@H]5NCC(=O)O)c3Cl)c2Cl)cc(F)c1CNCCO [Compound 245, (S)-2-((2-((2,2'-dichloro-3"-fluoro-4"-(((2-hydroxyethyl)amino)methyl)-5"-methoxy-[1,1':3',1"-terphenyl]-3-yl)carbamoyl)-4,5,6,7-tetrahydropyrazolo[1,5-a]pyridin-4-yl)amino)acetic acid]
< 10 nM	Cn1c(C(=O)Nc2cccc(-c3cccc(NC(=O)c4cc5n(n4)CCCC5NCCO)c3Cl)c2Cl)nc2c1CCN(CCC13CCC(C(=O)O)(CC1)C3)C2 (centres unmarked) [Compound 53, 4-(2-(2-((2,2'-dichloro-3'-(4-((2-hydroxyethyl)amino)-4,5,6,7-tetrahydropyrazolo[1,5-a]pyridine-2-carboxamido)-[1,1'-biphenyl]-3-yl)carbamoyl)-1-methyl-6,7-dihydro-1H-imidazo[4,5-c]pyridin-5(4H)-yl)ethyl)bicyclo[2.2.1]heptane-1-carboxylic acid]
< 10 nM	Cc1c(Nc2nccc3cc(CN4CC[C@@H](O)C4)cnc23)cccc1-c1cccc(-c2cc3n(n2)CCCC3NCC(=O)O)c1C (stereo partly drawn) [Compound 179, 2-((2-(3'-((3-(((R)-3-hydroxypyrrolidin-1-yl)methyl)-1,7-naphthyridin-8-yl)amino)-2,2'-dimethyl-[1,1'-biphenyl]-3-yl)-4,5,6,7-tetrahydropyrazolo[1,5-a]pyridin-4-yl)amino)acetic acid]
10 to 100 nM	COc1cc(-c2cccc(-c3cccc(NC(=O)c4cc5n(n4)CCCC5NCCO)c3Cl)c2Cl)cc(F)c1CNC[C@@H]1CCC(=O)N1 (stereo partly drawn) [Compound 126, N-(2,2'-dichloro-3"-fluoro-5"-methoxy-4"-(((((S)-5-oxopyrrolidin-2-yl)methyl)amino)methyl)-[1,1':3',1"-terphenyl]-3-yl)-4-((2-hydroxyethyl)amino)-4,5,6,7-tetrahydropyrazolo[1,5-a]pyridine-2-carboxamide]
10 to 100 nM	Cc1nc(Nc2cccc(-c3cccc(NC(=O)c4cc5n(n4)CCC[C@H]5N4CCC(C(=O)O)CC4)c3Cl)c2Cl)c2ncccc2n1 [Compound 255, (R)-1-(2-((2,2'-dichloro-3'-((2-methylpyrido[3,2-d]pyrimidin-4-yl)amino)-[1,1'-biphenyl]-3-yl)carbamoyl)-4,5,6,7-tetrahydropyrazolo[1,5-a]pyridin-4-yl)piperidine-4-carboxylic acid]
> 1000 nM	Cc1c(-c2cc3n(n2)CCCC3NCCO)cccc1-c1cccc(-c2cc3n(n2)CCCC3N2CC[C@@H](O)C2)c1C (stereo partly drawn) [Compound 157, (3R)-1-(2-(3'-(4-((2-hydroxyethyl)amino)-4,5,6,7-tetrahydropyrazolo[1,5-a]pyridin-2-yl)-2,2'-dimethyl-[1,1'-biphenyl]-3-yl)-4,5,6,7-tetrahydropyrazolo[1,5-a]pyridin-4-yl)pyrrolidin-3-ol]
10 to 100 nM	O=C(Nc1cccc(-c2cccc(Nc3nccc4cc(CN5CC[C@@H](O)C5)cnc34)c2Cl)c1Cl)c1cc2n(n1)CCCC2N1CCC(O)CC1 (stereo partly drawn) [Compound 23, N-(2,2'-dichloro-3'-((3-(((R)-3-hydroxypyrrolidin-1-yl)methyl)-1,7-naphthyridin-8-yl)amino)-[1,1'-biphenyl]-3-yl)-4-(4-hydroxypiperidin-1-yl)-4,5,6,7-tetrahydropyrazolo[1,5-a]pyridine-2-carboxamide]
< 10 nM	O=C(Nc1cccc(-c2cccc(NC(=O)c3cc4n(n3)CCCC4NCCO)c2Cl)c1Cl)c1ccc(CN2CC[C@@H](O)C2)cn1 (stereo partly drawn) [Compound 100, N-(2,2'-dichloro-3'-(5-(((R)-3-hydroxypyrrolidin-1-yl)methyl)picolinamido)-[1,1'-biphenyl]-3-yl)-4-((2-hydroxyethyl)amino)-4,5,6,7-tetrahydropyrazolo[1,5-a]pyridine-2-carboxamide]
< 10 nM	COc1cc(-c2cccc(-c3cccc(NC(=O)c4cc5n(n4)CCCC5NCCO)c3Cl)c2Cl)cc(F)c1CN1CC[C@@H](O)C1 (stereo partly drawn) [Compound 122, N-(2,2'-dichloro-3"-fluoro-4"-(((R)-3-hydroxypyrrolidin-1-yl)methyl)-5"-methoxy-[1,1':3',1"-terphenyl]-3-yl)-4-((2-hydroxyethyl)amino)-4,5,6,7-tetrahydropyrazolo[1,5-a]pyridine-2-carboxamide]
< 10 nM	Cc1c(NC(=O)c2cc3n(n2)CCN(CC(=O)O)C3)cccc1-c1cccc(Nc2nc(C(F)F)nc3cc(CN4CC[C@@H](O)C4)cnc23)c1C [Compound 328, (R)-2-(2-((3'-((2-(difluoromethyl)-7-((3-hydroxypyrrolidin-1-yl)methyl)pyrido[3,2-d]pyrimidin-4-yl)amino)-2,2'-dimethyl-[1,1'-biphenyl]-3-yl)carbamoyl)-6,7-dihydropyrazolo[1,5-a]pyrazin-5(4H)-yl)acetic acid]
10 to 100 nM	O=C(Nc1cccc(-c2cccc(Nc3nccc4nccnc34)c2Cl)c1Cl)c1cc2n(n1)CCC[C@H]2N1CCC(C(=O)O)CC1 [Compound 256, (R)-1-(2-((2,2'-dichloro-3'-(pyrido[3,4-b]pyrazin-5-ylamino)-[1,1'-biphenyl]-3-yl)carbamoyl)-4,5,6,7-tetrahydropyrazolo[1,5-a]pyridin-4-yl)piperidine-4-carboxylic acid]
10 to 100 nM	CC(C)(N[C@H]1CCCn2nc(C(=O)Nc3cccc(-c4cccc(Nc5nc(C(F)(F)F)nc6cccnc56)c4Cl)c3Cl)cc21)C(=O)O [Compound 275, (S)-2-((2-((2,2'-dichloro-3'-((2-(trifluoromethyl)pyrido[3,2-d]pyrimidin-4-yl)amino)-[1,1'-biphenyl]-3-yl)carbamoyl)-4,5,6,7-tetrahydropyrazolo[1,5-a]pyridin-4-yl)amino)-2-methylpropanoic acid]

SMILES	IC50
Cc1c(NC(=O)c2cc3n(n2)CCCC3O)cccc1-c1cccc(Nc2nccc3cc(CN4CC[C@@H](O)C4)cnc23)c1C (stereo partly drawn) [Compound 11, 4-hydroxy-N-(3'-((3-(((R)-3-hydroxypyrrolidin-1-yl)methyl)-1,7-naphthyridin-8-yl)amino)-2,2'-dimethyl-[1,1'-biphenyl]-3-yl)-4,5,6,7-tetrahydropyrazolo[1,5-a]pyridine-2-carboxamide]	< 10 nM
